Molecules are shown by their SMILES. ≈ marks a conversion by molar mass, not a printed value. Bounds are passed on as bounds.

The target of experiment [1] is T1, MRSA Pyk (Staphylococcus aureus, UniProt Q6GG09).
T1 construct: made in house; host or cells: E. coli BL-21 (DE3)
Description: MRSA pyruvate kinase (PK) activity, continuous LDH-coupled assay. It is filed as biochemical, methicillin resistant S. aureus (MRSA252). Put shortly:
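His-tagged MRSA PK (strain Sanger 252) and human PK isoforms expressed in E. coli BL-21 (DE3) and Ni-NTA purified, used at 15 nM in an LDH-coupled assay following NADH oxidation at 340 nm, 30° C, up to 5 min, ≤1% DMSO. IC50 from four-parameter variable-slope fit; Ki with PEP 2-20 mM, ADP fixed 2 mM, inhibitor 0-400 nM.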

For experiment [2], the system named is VRE#2 (2010A). Description: In vitro susceptibility, broth microdilution (MIC). Format: cell-based, vancomycin resistant Enterococci. The conditions noted are these: VRE#2 (2010A); read-out: Antimicrobial activity (MIC) VRE#2. Put shortly:
(§1)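 MIC determined by CLSI 2-fold broth microdilution in cation-adjusted Mueller–Hinton broth at ~2.5×10^5 CFU/ml, final compound 0.031–64 μg/ml, 18–24 h at 37 °C. MIC is the lowest concentration giving complete growth inhibition by background-corrected OD600 versus compound-free wells; duplicate or triplicate wells, replicated at least twice.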

For experiment [3], the system named is P. aeruginosa (PA01). Briefly: In vitro susceptibility, broth microdilution (MIC). It is filed as cell-based. The conditions noted are these: Pseudomonas aeruginosa, read-out: Antimicrobial activity (MIC) P. aeruginosa. An outline of the steps:
as §1
On the technique in general: Dilution methods test growth across graded concentrations, often in twofold steps.

For experiment [4], the system named is S. typhimurium (ATCC BAA-185). Description: In vitro susceptibility, broth microdilution (MIC). Format: cell-based. The conditions noted are these: Salmonella enterica, read-out: Antimicrobial activity (MIC) S. typhimurium. An outline of the steps: as §1

T1 sequence (Q6GG09 whole entry): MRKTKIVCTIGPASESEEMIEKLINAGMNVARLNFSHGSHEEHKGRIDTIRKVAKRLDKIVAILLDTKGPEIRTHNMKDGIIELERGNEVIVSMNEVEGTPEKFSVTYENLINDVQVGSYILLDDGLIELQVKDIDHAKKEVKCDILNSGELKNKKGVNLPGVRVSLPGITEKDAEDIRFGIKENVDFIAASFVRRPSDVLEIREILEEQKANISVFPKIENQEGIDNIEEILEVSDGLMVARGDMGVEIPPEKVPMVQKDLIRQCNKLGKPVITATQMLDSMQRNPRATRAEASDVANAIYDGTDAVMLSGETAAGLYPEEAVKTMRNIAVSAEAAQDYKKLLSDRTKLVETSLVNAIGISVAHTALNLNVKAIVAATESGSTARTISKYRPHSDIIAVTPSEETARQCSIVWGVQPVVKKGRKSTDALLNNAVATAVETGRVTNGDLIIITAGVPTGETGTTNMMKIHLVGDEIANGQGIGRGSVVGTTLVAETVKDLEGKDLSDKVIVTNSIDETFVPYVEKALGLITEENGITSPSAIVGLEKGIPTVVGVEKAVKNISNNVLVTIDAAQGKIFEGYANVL

A word on the IC50: it is the point on the concentration scale where inhibition reaches its midpoint. Read a high IC50 as lower potency. As usually defined, the MIC is the least concentration at which growth counts as inhibited. For `C[N+](C)(C)CCON=C(c1c(-c2cc3cc(Cl)ccc3[nH]2)[nH]c2cc(Br)ccc12)C(F)(F)F` (racemic) [Compound 221, 2-(((1-(6-Bromo-5′-chloro-1H,1′H-[2,2′-biindol]-3-yl)-2,2,2-trifluoroethylidene)amino)oxy)-N,N,N-trimethylethan-1-aminium Iodide], the IC50 in experiment [1] was below 0.1 µM. In addition, the MIC was 2 µg/mL in experiment [2], 32 µg/mL in experiment [3] and 64 µg/mL in experiment [4].

`CN(C)CCOC(=O)c1c(/C=C/c2ccc(Cl)cc2)[nH]c2cc(Br)ccc12` [Compound 60, (E)-2-(Dimethylamino)ethyl 6-bromo-2-(4-chlorostyryl)-1H-indole-3-carboxylate] came in with an IC50 in experiment [1] below 0.1 µM.

In experiment [1], `NCCOc1cc2[nH]c(-c3cc4ccc(Br)cc4[nH]3)cc2cc1Cl` [Compound 201, 2-((6′-Bromo-5-chloro-1H,1′H-[2,2′-biindol]-6-yl)oxy)ethan-1-amine] had an IC50 below 0.1 µM. For the same molecule, the MIC in experiment [2] turned out to be 4 µg/mL (≈ 9.88 µM); in experiment [3] it was 16 µg/mL (≈ 39.5 µM); in experiment [4], 16 µg/mL (≈ 39.5 µM).

For `NCCNC(=O)c1c(-c2cc3cc(Cl)ccc3[nH]2)[nH]c2cc(Br)ccc12` [Compound 206, N-(2-Aminoethyl)-6-bromo-5′-chloro-1H,1′H-[2,2′-biindole]-3-carboxamide], in experiment [1], the IC50 was below 0.1 µM. For the same molecule, the MIC in experiment [2] is 4 µg/mL (≈ 9.27 µM); in experiment [3], 32 µg/mL (≈ 74.1 µM); in experiment [4] it was 64 µg/mL (≈ 148 µM).

The values are drawn from patent publication US20180312493A1, “Antibiotic Compounds, Pharmaceutical Formulations Thereof And Methods And Uses Therefor” (Simon Fraser University, priority 2015, published 2018).
